Data set [1] has as its system Escherichia coli. As to the kind of experiment: Antibacterial activity against Escherichia coli ATCC 25922 assessed as inhibition of bacterial growth incubated for 24 hrs by TTC double broth dilution method. Type of data set: functional. As to conditions: ATCC 25922, 24 h. (In broth dilution the organism is exposed to a series of concentrations in liquid medium.)
Data set [2] deals with Pseudomonas aeruginosa. As to the kind of experiment: Antibacterial activity against Pseudomonas aeruginosa ATCC 27853 assessed as inhibition of bacterial growth incubated for 24 hrs by TTC double broth dilution method. It counts as functional. As to conditions: ATCC 27853, 24 h.
In data set [3] the test system is Bacillus subtilis. Description: Antibacterial activity against Bacillus subtilis ATCC 530 assessed as inhibition of bacterial growth incubated for 24 hrs by TTC double broth dilution method. It counts as functional. Conditions: ATCC 530, 24 h.
The subject of data set [4] is Staphylococcus aureus. As to the kind of experiment: Antibacterial activity against Staphylococcus aureus ATCC 25923 assessed as inhibition of bacterial growth incubated for 24 hrs by TTC double broth dilution method. Conditions: ATCC 25923, 24 h. It counts as functional.
For data set [5], the target named is T1, 3-oxoacyl-[acyl-carrier-protein] synthase 3 (Escherichia coli, UniProt C3TDZ2).
T1 sequence (C3TDZ2 whole entry): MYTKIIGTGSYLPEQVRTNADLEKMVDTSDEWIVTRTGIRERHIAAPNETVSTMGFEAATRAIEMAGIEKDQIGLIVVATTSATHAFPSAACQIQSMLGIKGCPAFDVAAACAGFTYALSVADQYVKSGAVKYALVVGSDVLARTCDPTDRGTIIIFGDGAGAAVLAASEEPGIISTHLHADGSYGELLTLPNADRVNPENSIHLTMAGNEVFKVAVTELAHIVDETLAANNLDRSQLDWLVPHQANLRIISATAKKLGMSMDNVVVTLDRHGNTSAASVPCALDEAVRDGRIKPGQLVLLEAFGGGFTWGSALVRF
Description: Inhibition of Escherichia coli FabH in presence of radiolabelled substrates and acetyl-coA by enzyme coupled FabD/FabH assay system.

The nature of data set [6]: Cytotoxicity against human 293T cells assessed as reduction in cell viability incubated for 24 hrs by MTT assay. Type of data set: cell-based. Conditions: HEK-293T cells. Background: Tetrazolium dyes change colour on reduction, which living cells bring about.
A short description of data set [7]: Induction of hemolysis in human erythrocytes assessed as hemoglobin release incubated for 3 hrs by spectrophotometric analysis. Type of data set: cell-based. Conditions: erythrocyte.

Converted amounts (≈) assume the structure as drawn.

One may read the MIC as the lowest concentration that inhibits growth of the organism. The IC50 is the concentration that inhibits the measured activity by half. By CC50 is commonly meant the concentration at which the toxic effect on the cells reaches its halfway point. As for `Cc1ccc(-c2nn(-c3ccccc3)cc2-c2nc3ccccc3n2C(=O)c2ccc(Cl)cc2)cc1`, the MIC in data set [1] is 62.5 µg/mL (≈ 128 µM); in data set [2], above 62.5 µg/mL; in data set [3] it was 62.5 µg/mL (≈ 128 µM); in data set [4], above 62.5 µg/mL. Also, the half-inhibitory concentration (IC50) in data set [5] amounted to 38.2 µM. The CC50 at 24 h in data set [6] is 216 µM. In data set [7], the LC30 is above 10000 µg/mL.
For `Cc1ccc(-c2nn(-c3ccccc3)cc2-c2nc3ccccc3n2C(=O)c2cccc(C)c2)cc1`, the MIC in data set [1] is 62.5 µg/mL (≈ 133 µM); in data set [2], 62.5 µg/mL (≈ 133 µM); in data set [3], 31.2 µg/mL (≈ 66.7 µM); in data set [4], above 62.5 µg/mL. Also, the IC50 in data set [5] stood at 33.2 µM. The CC50 at 24 h in data set [6] worked out at 195 µM. In addition, in data set [7], the LC30 was above 10000 µg/mL.
With `Cc1cncc(C(=O)n2c(-c3cn(-c4ccccc4)nc3-c3ccc(F)cc3)nc3ccccc32)c1`, the MIC in data set [1] turned out to be 62.5 µg/mL (≈ 132 µM); in data set [2] it was 62.5 µg/mL (≈ 132 µM); in data set [3] it was 15.6 µg/mL (≈ 32.9 µM); in data set [4], 62.5 µg/mL (≈ 132 µM). In data set [5], the IC50 was determined as 22.1 µM. In addition, the CC50 at 24 h in data set [6] was 119 µM. For the same molecule, the LC30 in data set [7] was above 10000 µg/mL.
Regarding `O=C(c1ccccc1)n1c(-c2cn(-c3ccccc3)nc2-c2ccc(C(F)(F)F)cc2)nc2ccccc21`, the MIC is 62.5 µg/mL (≈ 123 µM) in data set [1], 62.5 µg/mL (≈ 123 µM) in data set [2], 15.6 µg/mL (≈ 30.7 µM) in data set [3] and above 62.5 µg/mL in data set [4]. Also, the IC50 in data set [5] was 25.7 µM. The CC50 at 24 h in data set [6] is 168 µM. The LC30 in data set [7] is above 10000 µg/mL.
Take `Cc1ccc(C(=O)n2c(-c3cn(-c4ccccc4)nc3-c3ccc(C)cc3)nc3ccccc32)cc1`: the MIC in data set [1] is 3.9 µg/mL (≈ 8.32 µM); in data set [2] it was 31.2 µg/mL (≈ 66.7 µM); in data set [3], 0.98 µg/mL (≈ 2.09 µM); in data set [4] it was above 62.5 µg/mL. The IC50 in data set [5] is 3.06 µM. Also, the CC50 at 24 h in data set [6] was 176 µM. The LC30 in data set [7] is above 10000 µg/mL.
For `Cc1ccc(-c2nn(-c3ccccc3)cc2-c2nc3ccccc3n2C(=O)c2cncc(C)c2)cc1`, the MIC in data set [1] is 62.5 µg/mL (≈ 133 µM); in data set [2] it was 62.5 µg/mL (≈ 133 µM); in data set [3], 7.8 µg/mL (≈ 16.6 µM); in data set [4], 62.5 µg/mL (≈ 133 µM). For the same molecule, the IC50 in data set [5] is 9.56 µM. Besides, the CC50 at 24 h in data set [6] is 155 µM. For the same molecule, the LC30 in data set [7] was above 10000 µg/mL.
Turning to `Cc1cccc(C(=O)n2c(-c3cn(-c4ccccc4)nc3-c3ccc(C(F)(F)F)cc3)nc3ccccc32)c1`, the MIC is 62.5 µg/mL (≈ 120 µM) in data set [1], 31.2 µg/mL (≈ 59.8 µM) in data set [2], 31.2 µg/mL (≈ 59.8 µM) in data set [3] and above 62.5 µg/mL in data set [4]. In data set [5], the 50% inhibitory concentration (IC50) was found to be 34.9 µM. The CC50 at 24 h in data set [6] stood at 154 µM. Moreover, the LC30 in data set [7] is above 10000 µg/mL.
As to `Cc1ccc(-c2nn(-c3ccccc3)cc2-c2nc3ccccc3n2C(=O)c2ccccc2C)cc1`, the MIC in data set [1] is 62.5 µg/mL (≈ 133 µM); in data set [2], above 62.5 µg/mL; in data set [3], 62.5 µg/mL (≈ 133 µM); in data set [4], above 62.5 µg/mL. Besides, the IC50 in data set [5] was determined as 35.4 µM. In addition, the CC50 at 24 h in data set [6] is 176 µM. The LC30 in data set [7] is above 10000 µg/mL.
Consider `O=C(c1ccc(Cl)cc1)n1c(-c2cn(-c3ccccc3)nc2-c2ccc(C(F)(F)F)cc2)nc2ccccc21`, for which the MIC is 62.5 µg/mL (≈ 115 µM) in data set [1], 31.2 µg/mL (≈ 57.6 µM) in data set [2], 62.5 µg/mL (≈ 115 µM) in data set [3] and above 62.5 µg/mL in data set [4]. Further, the IC50 in data set [5] is 39.8 µM. Also, the CC50 at 24 h in data set [6] was 181 µM. Besides, the LC30 in data set [7] is above 10000 µg/mL.
In the case of `O=C(c1ccc(Cl)cc1)n1c(-c2cn(-c3ccccc3)nc2-c2ccc(F)cc2)nc2ccccc21`, the MIC in data set [1] was 62.5 µg/mL (≈ 127 µM); in data set [2] it was above 62.5 µg/mL; in data set [3], 62.5 µg/mL (≈ 127 µM); in data set [4], above 62.5 µg/mL. The IC50 in data set [5] was determined as 36.1 µM. Besides, the CC50 at 24 h in data set [6] came out at 179 µM. The LC30 in data set [7] was above 10000 µg/mL.
As for `Cc1ccc(C(=O)n2c(-c3cn(-c4ccccc4)nc3-c3ccc(C(F)(F)F)cc3)nc3ccccc32)cn1`, the MIC in data set [1] worked out at 1.95 µg/mL (≈ 3.72 µM); in data set [2], 62.5 µg/mL (≈ 119 µM); in data set [3], 0.49 µg/mL (≈ 0.936 µM); in data set [4], 62.5 µg/mL (≈ 119 µM). Further, the IC50 in data set [5] came out at 2.05 µM. In addition, the CC50 at 24 h in data set [6] stood at 153 µM. Moreover, the LC30 in data set [7] was above 10000 µg/mL.
`Cc1ccc(-c2nn(-c3ccccc3)cc2-c2nc3ccccc3n2C(=O)c2ccccc2)cc1`: the MIC in data set [1] is above 62.5 µg/mL; in data set [2], 62.5 µg/mL (≈ 138 µM); in data set [3] it was 31.2 µg/mL (≈ 68.8 µM); in data set [4], above 62.5 µg/mL. For the same molecule, the IC50 in data set [5] was determined as 28.2 µM. The CC50 at 24 h in data set [6] was 204 µM. In addition, the LC30 in data set [7] was above 10000 µg/mL.
Take `Cc1ccccc1C(=O)n1c(-c2cn(-c3ccccc3)nc2-c2ccc(C(F)(F)F)cc2)nc2ccccc21`: the MIC in data set [1] is above 62.5 µg/mL; in data set [2] it was above 62.5 µg/mL; in data set [3], 62.5 µg/mL (≈ 120 µM); in data set [4], above 62.5 µg/mL. Further, in data set [5], the IC50 was 36.5 µM. Also, in data set [6], the CC50 at 24 h came out at 179 µM. For the same molecule, the LC30 in data set [7] is above 10000 µg/mL.
For `Cc1ccc(-c2nn(-c3ccccc3)cc2-c2nc3ccccc3n2C(=O)c2ccncc2)cc1`, the MIC in data set [1] is above 62.5 µg/mL; in data set [2] it was 62.5 µg/mL (≈ 137 µM); in data set [3], 31.2 µg/mL (≈ 68.6 µM); in data set [4] it was 62.5 µg/mL (≈ 137 µM). For the same molecule, in data set [5], the IC50 is 30.3 µM. For the same molecule, the CC50 at 24 h in data set [6] was 154 µM. The LC30 in data set [7] is above 10000 µg/mL.
As to `Cc1ccc(-c2nn(-c3ccccc3)cc2-c2nc3ccccc3n2C(=O)c2cccnc2)cc1`, the MIC is 62.5 µg/mL (≈ 137 µM) in data set [1], 62.5 µg/mL (≈ 137 µM) in data set [2], 0.98 µg/mL (≈ 2.15 µM) in data set [3] and 31.2 µg/mL (≈ 68.6 µM) in data set [4]. In addition, the IC50 in data set [5] amounted to 18.3 µM. The CC50 at 24 h in data set [6] worked out at 189 µM. The LC30 in data set [7] was above 10000 µg/mL.
`Cc1ccc(C(=O)n2c(-c3cn(-c4ccccc4)nc3-c3ccc(F)cc3)nc3ccccc32)cc1`: the MIC in data set [1] was 62.5 µg/mL (≈ 132 µM); in data set [2], above 62.5 µg/mL; in data set [3], 0.98 µg/mL (≈ 2.07 µM); in data set [4] it was above 62.5 µg/mL. For the same molecule, in data set [5], the IC50 is 30.3 µM. In data set [6], the CC50 at 24 h amounted to 178 µM. In addition, the LC30 in data set [7] is above 10000 µg/mL.
For `Cc1cccc(C(=O)n2c(-c3cn(-c4ccccc4)nc3-c3ccc(F)cc3)nc3ccccc32)c1`, the MIC in data set [1] turned out to be 62.5 µg/mL (≈ 132 µM); in data set [2], 31.2 µg/mL (≈ 66.1 µM); in data set [3], 31.2 µg/mL (≈ 66.1 µM); in data set [4] it was 62.5 µg/mL (≈ 132 µM). In data set [5], the IC50 was 34.1 µM. Moreover, in data set [6], the CC50 at 24 h is 148 µM. Further, the LC30 in data set [7] is above 10000 µg/mL.
On to `O=C(c1ccncc1)n1c(-c2cn(-c3ccccc3)nc2-c2ccc(F)cc2)nc2ccccc21`, for which the MIC in data set [1] was above 62.5 µg/mL; in data set [2] it was 62.5 µg/mL (≈ 136 µM); in data set [3], 31.2 µg/mL (≈ 68 µM); in data set [4] it was 62.5 µg/mL (≈ 136 µM). For the same molecule, the IC50 in data set [5] is 33.9 µM. In data set [6], the CC50 at 24 h came out at 151 µM. The LC30 in data set [7] is above 10000 µg/mL.
For `O=C(c1ccccc1)n1c(-c2cn(-c3ccccc3)nc2-c2ccc(F)cc2)nc2ccccc21`, the MIC was 62.5 µg/mL (≈ 136 µM) in data set [1], 62.5 µg/mL (≈ 136 µM) in data set [2], 7.8 µg/mL (≈ 17 µM) in data set [3] and above 62.5 µg/mL in data set [4]. Also, the IC50 in data set [5] stood at 22.1 µM. Moreover, the CC50 at 24 h in data set [6] came out at 180 µM. The LC30 in data set [7] was above 10000 µg/mL.
Turning to `NC[C@H]1O[C@H](O[C@H]2[C@H](O)[C@@H](O[C@H]3O[C@H](CO)[C@@H](O)[C@H](N)[C@H]3O)[C@H](N)C[C@@H]2N)[C@H](N)[C@@H](O)[C@@H]1O` [BEKANAMYCIN], the MIC in data set [1] was 1.95 µg/mL (≈ 4.03 µM); in data set [2], 3.9 µg/mL (≈ 8.07 µM); in data set [3], 0.98 µg/mL (≈ 2.03 µM); in data set [4], 0.98 µg/mL (≈ 2.03 µM).

For the origin of these results see ChEMBL document CHEMBL4346683 (Eur J Med Chem, 2019).
